In ChEMBL document CHEMBL1201862, “PubChem BioAssay data set” (2004):
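Cells were grown in 96-well plates and exposed to each compound for 48 hours at five concentrations; endpoints were interpolated linearly between bracketing concentrations, or set to the highest concentration if not reached. At the GI50, growth is halved.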 Active and inactive are the calls of the source. Rule as the data show it: active = GI50 up to about 1.1 µM and inactive = higher.

Experiments:
Assay in all cases: NCI anticancer screen, dose series, 48 h
[1] = test system: BT-549
[2] = test system: COLO 205
[3] = test system: DU-145
[4] = test system: HCT-116
[5] = test system: HOP-62
[6] = test system: IGROV-1
[7] = test system: KM12
[8] = test system: MCF7
[9] = test system: MDA-MB-231
[10] = test system: MDA-N
[11] = test system: Malme-3M
[12] = test system: OVCAR-4
[13] = test system: RPMI-8226
[14] = test system: SF-539
[15] = test system: SK-MEL-5
[16] = test system: SK-OV-3
[17] = test system: SN12C
[18] = test system: SNB-75
[19] = test system: T47D
[20] = test system: U-251

Structure (SMILES)	GI50 [1]	GI50 [2]	GI50 [3]	GI50 [4]	GI50 [5]	GI50 [6]	GI50 [7]	GI50 [8]	GI50 [9]	GI50 [10]	GI50 [11]	GI50 [12]	GI50 [13]	GI50 [14]	GI50 [15]	GI50 [16]	GI50 [17]	GI50 [18]	GI50 [19]	GI50 [20]
COc1cc2nc3n(c(=O)c2cc1OC)CCCCC3	> 100 µM (inactive)	> 100 µM (inactive)	> 100 µM (inactive)	> 100 µM (inactive)	> 100 µM (inactive)	> 100 µM (inactive)	> 100 µM (inactive)	> 100 µM (inactive)	> 100 µM (inactive)	> 100 µM (inactive)	> 100 µM (inactive)	> 100 µM (inactive)	83.9 µM (inactive)	> 10 µM (inactive)	> 100 µM (inactive)	> 100 µM (inactive)	> 100 µM (inactive)	> 100 µM (inactive)	> 100 µM (inactive)	> 100 µM (inactive)
CCCC(=O)Nc1ncnc2c1ncn2C1OC2COP(=O)(O)OC2C1OC(=O)CCC (stereo not given)	> 1000 µM (inactive)	> 100 µM (inactive)	> 100 µM (inactive)	> 100 µM (inactive)	> 100 µM (inactive)	22.5 µM (inactive)	> 100 µM (inactive)	> 100 µM (inactive)	479 µM (inactive)	> 100 µM (inactive)	> 100 µM (inactive)	> 100 µM (inactive)	> 1000 µM (inactive)	382 µM (inactive)	> 100 µM (inactive)	> 100 µM (inactive)	> 100 µM (inactive)	0.0246 µM (active)	> 100 µM (inactive)	> 100 µM (inactive)
CC(/C=C/C(=O)NO)=C\C(C)C(=O)c1ccc(N(C)C)cc1 (stereo not given)	0.424 µM (active)	0.0209 µM (active)	0.0176 µM (active)	< 0.01 µM (active)	0.0391 µM (active)	0.0259 µM (active)	0.0256 µM (active)	< 0.01 µM (active)	0.0184 µM (active)	0.0287 µM (active)	< 0.01 µM (active)	0.0409 µM (active)	< 0.01 µM (active)	0.0267 µM (active)	0.0313 µM (active)	0.0498 µM (active)	0.0605 µM (active)	0.0244 µM (active)	< 0.01 µM (active)	0.0142 µM (active)
NC(=O)C/C=C/CC(N)=O	> 100 µM (inactive)	> 100 µM (inactive)	> 100 µM (inactive)	> 100 µM (inactive)	> 100 µM (inactive)	> 100 µM (inactive)	> 100 µM (inactive)	> 100 µM (inactive)	> 100 µM (inactive)	> 100 µM (inactive)	> 100 µM (inactive)	> 100 µM (inactive)	> 100 µM (inactive)	> 100 µM (inactive)	> 100 µM (inactive)	> 100 µM (inactive)	> 100 µM (inactive)	> 100 µM (inactive)	> 100 µM (inactive)	> 100 µM (inactive)
N#Cc1sc2c(c1OC(=O)c1ccccc1)c(=O)n(-c1ccccc1)c(=S)n2-c1ccccc1	23.8 µM (inactive)	16.6 µM (inactive)	31 µM (inactive)	19.9 µM (inactive)	18.2 µM (inactive)	22 µM (inactive)	19.5 µM (inactive)	19.2 µM (inactive)	23.9 µM (inactive)	26.3 µM (inactive)	20.5 µM (inactive)	21.7 µM (inactive)	23.6 µM (inactive)	23.8 µM (inactive)	15.2 µM (inactive)	35.6 µM (inactive)	26.4 µM (inactive)	> 10 µM (inactive)	16.2 µM (inactive)	20.1 µM (inactive)
CCCCC/C=C\C=C\CCCCCCCCC(=O)OC	> 100 µM (inactive)	> 100 µM (inactive)	> 100 µM (inactive)	> 100 µM (inactive)	> 100 µM (inactive)	> 100 µM (inactive)	> 100 µM (inactive)	> 100 µM (inactive)	> 100 µM (inactive)	> 100 µM (inactive)	> 100 µM (inactive)	> 100 µM (inactive)	> 100 µM (inactive)	> 100 µM (inactive)	24 µM (inactive)	> 100 µM (inactive)	> 100 µM (inactive)	> 100 µM (inactive)	> 100 µM (inactive)	> 100 µM (inactive)
Oc1cccnc1CN1CCCCC1	> 100 µM (inactive)	> 100 µM (inactive)	> 100 µM (inactive)	> 100 µM (inactive)	> 100 µM (inactive)	> 100 µM (inactive)	> 100 µM (inactive)	> 100 µM (inactive)	> 100 µM (inactive)	> 100 µM (inactive)	> 100 µM (inactive)	> 100 µM (inactive)	> 100 µM (inactive)	> 100 µM (inactive)	> 100 µM (inactive)	> 100 µM (inactive)	> 100 µM (inactive)	> 100 µM (inactive)	> 100 µM (inactive)	> 100 µM (inactive)
O=C(NC(=O)c1ccccc1[N+](=O)[O-])Nc1ccc(Oc2ncc(Cl)cn2)c([N+](=O)[O-])c1	31.5 µM (inactive)	0.34 µM (active)	0.291 µM (active)	0.175 µM (active)	0.303 µM (active)	0.368 µM (active)	0.0975 µM (active)	0.12 µM (active)	0.281 µM (active)	0.0227 µM (active)	0.061 µM (active)	21.9 µM (inactive)	0.187 µM (active)	0.233 µM (active)	0.0773 µM (active)	0.146 µM (active)	0.7 µM (active)	0.0767 µM (active)	0.414 µM (active)	0.255 µM (active)
N#Cc1c(-c2ccc(Cl)cc2)cc(-c2ccc(Nc3ccnc4cc(C(F)(F)F)ccc34)cc2)[nH]c1=O	17.4 µM (inactive)	21 µM (inactive)	22.9 µM (inactive)	4.76 µM (inactive)	23.6 µM (inactive)	> 54.3 µM (inactive)	67.1 µM (inactive)	4.79 µM (inactive)	19.3 µM (inactive)	3.53 µM (inactive)	14.1 µM (inactive)	8.41 µM (inactive)	21.1 µM (inactive)	6.65 µM (inactive)	19.1 µM (inactive)	28.1 µM (inactive)	59.2 µM (inactive)	11.7 µM (inactive)	4.79 µM (inactive)	2.63 µM (inactive)
COc1ccc(\N=C/C=C/C(=C/COC(C)=O)OC(C)=O)cc1	33.3 µM (inactive)	25.4 µM (inactive)	39.4 µM (inactive)	5.53 µM (inactive)	51.4 µM (inactive)	21.1 µM (inactive)	28.6 µM (inactive)	21.7 µM (inactive)	19.6 µM (inactive)	9.38 µM (inactive)	31.2 µM (inactive)	27.2 µM (inactive)	5.48 µM (inactive)	35.9 µM (inactive)	29 µM (inactive)	91.2 µM (inactive)	32.7 µM (inactive)	> 100 µM (inactive)	72.9 µM (inactive)	25.9 µM (inactive)
Cc1cc(-c2nc3ccccc3s2)ccc1N	48.3 µM (inactive)	40.7 µM (inactive)	46.6 µM (inactive)	46.7 µM (inactive)	49.9 µM (inactive)	0.0219 µM (active)	42.5 µM (inactive)	< 0.0133 µM (active)	38.6 µM (inactive)	60.7 µM (inactive)	64.3 µM (inactive)	4.98 µM (inactive)	9.79 µM (inactive)	> 71.1 µM (inactive)	21.9 µM (inactive)	55.5 µM (inactive)	32.9 µM (inactive)	35.3 µM (inactive)	0.0322 µM (active)	45 µM (inactive)
